The values that follow come from ChEMBL document CHEMBL5537150, “Synthesis of melampomagnolide B derivatives as potential anti-Triple Negative Breast Cancer agents” (Eur J Med Chem, 2024).

Activity calls are given as the source filed them. The rule behind the calls is not given here.

Series [1] deals with 4T1. Description: Antiproliferative activity against mouse 4T1 cells assessed as inhibition of cell growth incubated for 72 hrs by MTT assay. It is filed as functional, cell-based. The following applies: 4T1, 72 h. Background: Tetrazolium assays rely on reduction of a dye to a coloured formazan, in cell work by metabolically active cells.
Series [2] relates to MDA-MB-468. Description: Antimigratory activity in human MDA-MB-468 cells assessed as reduction in number of migrated cells incubated for 48 hrs by crystal violet staining based transwell assay. Format: functional, cell-based.
Series [3] has as its system MDA-MB-231. Description: Antimigratory activity in human MDA-MB-231 cells assessed as reduction in number of migrated cells incubated for 48 hrs by crystal violet staining based transwell assay. It is filed as functional, cell-based.
Series [4] relates to MDA-MB-468. Description: Antimigratory activity in human MDA-MB-468 cells assessed as downregulation of N-cadherin protein expression incubated for 48 hrs by Western blotting analysis. Format: functional, cell-based. (In general: A western blot detects proteins with antibodies after separation by electrophoresis.)
Series [5] relates to MDA-MB-468. As to the kind of experiment: Induction of apoptosis in human MDA-MB-468 cells at 0.5 uM incubated for 48 hrs by annexin-V-APC/PI staining based flow cytometric analysis (reference value: 5.38 +/- 1.63 %). It is filed as functional.
Series [6] deals with MDA-MB-468. Description: Induction of apoptosis in human MDA-MB-468 cells at 5 uM incubated for 48 hrs by annexin-V-APC/PI staining based flow cytometric analysis (reference value: 5.38 +/- 1.63 %). Format: functional. (In flow cytometry, cells or beads pass a laser one at a time.)
The subject of series [7] is MDA-MB-231. Description: Induction of apoptosis in human MDA-MB-231 cells at 5 uM incubated for 48 hrs by annexin-V-APC/PI staining based flow cytometric analysis (reference value: 1.81 +/- 0.47 %). It is filed as functional.
Series [8] has as its system MDA-MB-231. Description: Induction of apoptosis in human MDA-MB-231 cells assessed as downregulation of BCL-2 protein expression incubated for 48 hrs by Western blotting analysis. It is filed as functional, cell-based.
The test system of series [9] is MDA-MB-231. As to the kind of experiment: Induction of cell cycle arrest in human MDA-MB-231 cells assessed as decrease in accumulation of cells at G1 phase at 0.2 to 2 uM incubated for 48 hrs by RNase/PI staining based flow cytometric analysis. It is filed as functional. Conditions: dose 0.2-2 µM.
For series [10], the system named is MDA-MB-231. As to the kind of experiment: Inhibition of NF-kappaB signalling pathway in human MDA-MB-231 cells assessed as downregulation of IkappaBalpha phosphorylation at 0.5 to 2 uM incubated for 48 hrs by Western blotting analysis. Format: cell-based. The following applies: dose 0.5-2 µM.
In series [11] the test system is MDA-MB-231. Description: Inhibition of NF-kappaB signalling pathway in human MDA-MB-231 cells assessed as effect on total p65 protein level at 0.2 to 2 uM incubated for 48 hrs by Western blotting analysis. It is filed as cell-based. Conditions: dose 0.2-2 µM.
For series [12], the system named is MDA-MB-231. Description: Inhibition of NF-kappaB signalling pathway in human MDA-MB-231 cells assessed as downregulation of nuclear p65 expression at 0.2 to 2 uM incubated for 48 hrs by Western blotting analysis. It is filed as cell-based. Conditions: dose 0.2-2 µM.
Series [13] concerns MDA-MB-231. As to the kind of experiment: Inhibition of NF-kappaB signalling pathway in human MDA-MB-231 cells assessed as inhibition of p65 nuclear translocation at 0.2 to 2 uM incubated for 48 hrs by Western blotting analysis. Conditions: dose 0.2-2 µM. It is filed as cell-based.
For series [14], the system named is 4T1. As to the kind of experiment: Antitumor activity against mouse 4T1 cells implanted in Balb/c mouse assessed as inhibition of tumor volume at 10 mg/kg,ip administrated every two days for 20 days. Format: functional, organism-based. Conditions: time 20.0 day.
Series [15] can be described thus: Toxicity in Balb/c mouse implanted with mouse 4T1 cells assessed as decrease in body weight at 10 mg/kg,ip administrated every two days for 20 days. It is filed as organism-based. Conditions: in vivo, 480 h, time 20 day.

As a reminder, the IC50 is the concentration at which inhibition is half-maximal. With `C=C1C(=O)O[C@H]2[C@H]1CC/C(COc1ccc(-c3cc(=S)ss3)cc1)=C\CC[C@@]1(C)O[C@@H]21`, the IC50 with 4T1 [1] came to 1180 nM. Besides, the Activity entry is “Dose-Dependent Effect” in the series with MDA-MB-468 [2]; “Dose-Dependent Effect” with MDA-MB-231 [3]; “Dose-Dependent Effect” with MDA-MB-468 [4]; 5.77% in the series with MDA-MB-468 [5]; 43.96% with MDA-MB-468 [6]; 71.28% in the series on MDA-MB-231 [7]. Besides, the Activity entry with MDA-MB-231 [8] was “Dose-Dependent Effect”; in [15], “Toxic”. Moreover, the result in the series with MDA-MB-231 [9] and in the series with 4T1 [14] was Active. The inhibition result in the series on MDA-MB-231 [10], in the series on MDA-MB-231 [12] and in the series with MDA-MB-231 [13] was “Active” throughout. Moreover, in the series on MDA-MB-231 [11], the inhibition result is “inactive”.
